Reference: publication PMC12670426 (Journal of Medicinal Chemistry, 2025)
Like-named read-outs stand apart in the source and are kept apart here.

Legend:
[1] = Plasma stability assay, rat plasma; assay type: in vitro ADME; details: 37 °C
Method: (§1) Test compounds (10 μM) were incubated with mouse, rat, or human pooled plasma from 50 donors (Biowest) at 37 °C for 20, 60, and 120 min. Reactions were terminated by adding four volumes of ice-cold methanol, followed by vigorous mixing. Samples were kept at −20 °C for 30 min and then stored at 4 °C overnight. The next day, samples were centrifuged, and supernatants were diluted with four volumes of 30% methanol in water. Zero time points were prepared by adding ice-cold methanol to the compound prior to the addition of plasma. Samples were then analyzed on an Echo MS system (SCIEX) using multiple reaction monitoring (MRM). The only exception was compound 3af, which was analyzed by LC–MS/MS (SCIEX 6500 triple quadrupole) due to its weak ionization in Echo-MS.

[2] = Microsomal stability assay, rat liver microsomes; assay type: in vitro ADME; details: pooled liver microsomes, pH 7.4, rat liver microsomes 0.5 mg/mL, NADPH
Method: (§2) Microsomal stability was determined using 0.5 mg/mL of pooled human, mouse, or rat liver microsomes (Thermo Fisher Scientific) in 90 mM TRIS-Cl buffer (pH 7.4) containing 2 mM NADPH and 2 mM MgCl2. Test compounds (10 μM) were added, and the resulting mixture was incubated at 37 °C for 10, 60, 120, and 180 min. The reactions were terminated by the addition of four volumes of ice-cold methanol, followed by vigorous mixing. The samples were left at −20 °C for 30 min and then stored at 4 °C overnight. The next day, samples were centrifuged, and supernatants were diluted with four volumes of 30% methanol in water. Zero time points were prepared by adding ice-cold methanol to the mixture of compounds and cofactors prior to the addition of microsomes. The samples were then analyzed using the Echo-MS system (SCIEX) with MRM transition monitoring, except for compound 3af, which was analyzed by LC–MS/MS as described in the plasma stability assay.

[3] = biological target: T1, human galectin-1 (Gal-1, full length) (Homo sapiens, UniProt P09382); experiment: Competitive fluorescence polarization assay, Gal-1; assay type: binding
T1 construct: Gal-1 is a prototype galectin consisting of a single CRD and was used in full length; 6xHis tag with TEV protease site (N, cleaved yes); made in house; host or cells: BL21 Escherichia coli (pET-15b)
T1 sequence (P09382 2-135): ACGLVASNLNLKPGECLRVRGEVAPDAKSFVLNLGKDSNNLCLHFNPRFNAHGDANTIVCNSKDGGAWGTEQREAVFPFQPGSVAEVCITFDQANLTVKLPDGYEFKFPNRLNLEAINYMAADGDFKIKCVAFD
Method: (§3) Our investigation of the structure–activity relationship of N-aryl-N-lactosylamides started with an initial screening of substituted acetanilides (Table ). These compounds can be readily synthesized from a wide range of commercially available substituted anilines. Affinity was evaluated using a fluorescence polarization assay, which enables reliable determination of dissociation constants (K d) between small molecules and galectins. All inhibitors in this series were tested against the two most common human galectins: Gal-1 and Gal-3. Gal-1 is a prototype galectin consisting of a single CRD and was used in full length. In the case of Gal-3, which consists of the C-terminal CRD and N-terminal unfolded region, only the C-terminal domain was used (Gal-3C). Affinities were compared to methyl β-lactoside (β-LacOMe) as a baseline.
(§4) Fluorescence polarization experiments for determining inhibitor affinities were performed using the same instrumentation and settings as described for the direct binding experiments. […] The galectin–probe mixture was subsequently added using a Certus Flex liquid handler (Fritz Gyger AG, Switzerland) to reach a final volume of 5 μL. Anisotropy was measured after 30–60 min incubation at 25 °C. Inhibitor dissociation constants (K d) were calculated using Wang’s exact cubic model for competitive binding implemented in the BindCurve package. Protein and probe concentrations used in these competitive experiments are provided in the Supporting Information.
(§5) Competitive binding was modeled by Wang’s exact cubic model,3 which is written as […]
(§6) r = rmin + (rmax − rmin) 3 (6) […]
(§7) where r, rmin and rmax have the same meaning as in Equation 1. The coefficients a, b, and c are […]
(§8) a = Kd∗ + Kd + [L∗]T + [L]T − [R]T (7) b = Kd∗([L]T − [R]T) + Kd([L∗]T − [R]T) + Kd∗ Kd (8) […]
(§9) where Kd∗ is the dissociation constant of the probe, Kd is the dissociation constant of the […]
(§10) the unlabeled ligand, and [R]T is the total concentration of the receptor. The angle θ is defined […]
(§11) In the competitive binding experiments, the values of [L∗]T, [R]T and Kd∗ are known and [L]T is titrated. The values of minimal and maximal anisotropy rmin and rmax were fixed during fitting at the values of the minimal and maximal asymptotes obtained from the direct binding experiments. The value of Kd was calculated as the only unfixed parameter in the model.
(§12) Experimental constants used for the competitive fluorescence polarization experiments are […]
(§13) Table S2. Experimental constants used for competitive fluorescence polarization experiments. […]

[4] = Microsomal stability assay, human liver microsomes; assay type: in vitro ADME; details: pooled liver microsomes, pH 7.4, human liver microsomes 0.5 mg/mL, NADPH
Method: as §2

[5] = Plasma protein binding assay (rapid equilibrium dialysis), rat plasma; assay type: in vitro ADME; details: fraction bound, read-out: plasma protein binding Fb rat (converted)
Method: (§14) Test compound (10 μM) was incubated at 37 °C for 4 h with mouse, rat, or human plasma (Biowest) in the donor well of a rapid equilibrium dialysis plate (Thermo Fisher Scientific). PBS was placed in the acceptor well. To stop the assay, samples were collected from both wells, and an equal volume of plasma was added to the PBS sample, and vice versa. Proteins were then precipitated by adding three volumes of ice-cold methanol. Samples were mixed gently, kept at −20 °C for 30 min, and then stored at 4 °C overnight. The next day, the samples were centrifuged, and the supernatants were diluted with four volumes of 30% methanol in water. The samples were then analyzed using the Echo-MS system (SCIEX) with MRM transition monitoring, except for compound 3af, which was analyzed by LC–MS/MS as described in the plasma stability assay.

[6] = Plasma protein binding assay (rapid equilibrium dialysis), mouse plasma; assay type: in vitro ADME; details: fraction bound, read-out: plasma protein binding Fb mouse (converted)
Method: as §14

[7] = Plasma protein binding, summary across species; assay type: in vitro ADME; details: summary across human, mouse and rat plasma
Method: as §14

[8] = Plasma stability assay, mouse plasma; assay type: in vitro ADME; details: 37 °C
Method: as §1

[9] = Microsomal stability assay, mouse liver microsomes; assay type: in vitro ADME; details: pooled liver microsomes, pH 7.4, mouse liver microsomes 0.5 mg/mL, NADPH
Method: as §2

[10] = Plasma protein binding assay (rapid equilibrium dialysis), human plasma; assay type: in vitro ADME; details: fraction bound, read-out: plasma protein binding Fb human (converted)
Method: as §14

[11] = Kinetic solubility assay in PBS; assay type: physicochemical; details: aqueous buffer, kinetic from dmso stock; PBS at pH 7.4, 100 μM final, 2 h room temperature
Method: The solutions were incubated at room temperature for 2 h and filtered by centrifugation. Filtrates were diluted 100-fold with 50% acetonitrile in water and then analyzed on the Echo-MS system (SCIEX) using MRM transition monitoring, except for compound 3af, which was analyzed by LC–MS/MS as described in the plasma stability assay. Compound concentrations were quantified against calibration curves prepared in the identical matrix as the samples.

[12] = Plasma stability assay, human plasma; assay type: in vitro ADME; details: pooled plasma, 37 °C
Method: as §1

[13] = biological target: T2, human galectin-3C (Gal-3C, C-terminal CRD of galectin-3) (Homo sapiens, UniProt P17931); experiment: Competitive fluorescence polarization assay, Gal-3C; assay type: binding
T2 construct: only the C-terminal domain was used (Gal-3C); 6xHis tag with TEV protease site (N, cleaved yes); made in house; host or cells: BL21 Escherichia coli (pET-15b)
T2 sequence (P17931 118-248 limits assumed): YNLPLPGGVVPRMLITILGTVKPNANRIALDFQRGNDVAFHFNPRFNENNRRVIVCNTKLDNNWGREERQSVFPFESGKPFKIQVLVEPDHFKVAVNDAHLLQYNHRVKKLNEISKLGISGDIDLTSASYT
Method: as §3, §4, §5, §6, §7, §8, §9, §10, §11, §12, §13

[14] = CSV supplement, unrounded mean, read-out: Gal1_IC50_mean_uM
[15] = CSV supplement, unrounded mean, read-out: Gal1_Kd_mean_uM
[16] = competitive fluorescence polarization, mean ± SD, read-out: Kd Gal-1
[17] = four-parameter logistic model, mean ± SD, read-out: IC50 Gal-1
[18] = CSV supplement, unrounded mean, read-out: Gal3C_IC50_mean_uM
[19] = CSV supplement, unrounded mean, read-out: Gal3C_Kd_mean_uM
[20] = competitive fluorescence polarization, mean ± SD, read-out: Kd Gal-3C
[21] = four-parameter logistic model, mean ± SD, read-out: IC50 Gal-3C

Row | remaining at 2 h, 10 μM [1] [%] | microsomal CLint at 10 μM [2] [µL/min/mg] | IC50 [3, 14] [µM] | Kd [3, 15] [µM] | Kd [3, 16] [µM] | IC50 [3, 17] [µM] | microsomal CLint at 10 μM [4] [µL/min/mg] | fraction unbound at 4 h, 10 μM [5] | fraction unbound at 4 h, 10 μM [6] | fraction unbound at 4 h, 10 μM [7] | remaining at 2 h, 10 μM [8] [%] | microsomal CLint at 10 μM [9] [µL/min/mg] | fraction unbound at 4 h, 10 μM [10] | solubility kinetic at 2 h [11] [µM] | remaining at 2 h, 10 μM [12] [%] | IC50 [13, 18] [µM] | Kd [13, 19] [µM] | Kd [13, 20] [µM] | IC50 [13, 21] [µM] | Compound | also measured
1 | 140 ± 7 | < 2 | 1240 | 737 | 740 ± 20 | 1200 ± 300 | < 2 | 0.94 | 0.93 | > 0.9 | 110 ± 2 | < 2 | 0.94 | > 100 | 99 ± 8 | 32.2 | 11.4 | 11 ± 2 | 32 ± 2 | CC(=O)N(c1cc(O)cc(C(=O)O)c1)[C@@H]1O[C@H](CO)[C@@H](O[C@@H]2O[C@H](CO)[C@H](O)[C@H](O)[C@H]2O)[C@H](O)[C@H]1O [Compound 3ad, N-[4-O-(β-D-Galactopyranosyl)-β-D-glucopyranosyl]-N-(3-carboxy-5-hydroxyphenyl)acetamide] | –
2 | 94 | < 2 | 1530 | 846 | 850 ± 200 | 1500 ± 300 | 3 | 0.73 | > 0.95 | > 0.9 | 76 | < 2 | > 0.95 | > 100 | 100 | 11.4 | 4.15 | 4.1 ± 0.4 | 11 ± 0.9 | CC(=O)N(c1cc(C(=O)O)cc2[nH]ccc12)[C@@H]1O[C@H](CO)[C@@H](O[C@@H]2O[C@H](CO)[C@H](O)[C@H](O)[C@H]2O)[C@H](O)[C@H]1O [Compound 3af, N-[4-O-(β-D-Galactopyranosyl)-β-D-glucopyranosyl]-N-(6-carboxy-1H-indol-4-yl)acetamide] | enhancement of affinity for Gal-3C compared to 3r ([13]; compared to 3r): 10 fold; improvement in affinity toward Gal-3C compared to 3a ([13]; compared to unsubstituted phenyl derivative 3a): 27 fold; improvement in affinity toward Gal-3C compared to β-LacOMe ([13]; compared to β-LacOMe): 56 fold; selectivity for Gal-3C over Gal-1 ([13]; ratio Kd (Gal-1)/Kd (Gal-3C)): more than 200 fold
3 | 110 ± 5 | < 2 | 7.16 | 3.62 | 3.6 ± 0.4 | 7.2 ± 0.6 | < 2 | 0.75 | 0.78 | 0.1 to 0.78 | 89 ± 5 | < 2 | 0.66 | > 100 | 92 ± 6 | 0.154 | 0.0315 | 0.031 ± 0.004 | 0.15 ± 0.009 | CC(=O)c1c[nH]c2cc(C(=O)O)cc(N(C(C)=O)[C@@H]3O[C@H](CO)[C@@H](S[C@@H]4O[C@H](CO)[C@H](O)[C@H](n5cc(-c6cccc(F)c6)nn5)[C@H]4O)[C@H](O)[C@H]3O)c12 [Compound 10, N-[4-S-(3-Deoxy-3-(4-(3-fluorophenyl)-1H-1,2,3-triazol-1-yl)-β-D-galactopyranosyl)-4-thio-β-D-glucopyranosyl]-N-(3-acetyl-6-carboxy-1H-indol-4-yl)acetamide] | –
4 | – | – | 1640 | 770 | 770 ± 200 | 1600 ± 70 | – | – | – | – | – | – | – | – | – | 756 | 234 | 230 ± 20 | 760 ± 90 | CO[C@@H]1O[C@H](CO)[C@@H](O[C@@H]2O[C@H](CO)[C@H](O)[C@H](O)[C@H]2O)[C@H](O)[C@H]1O [β-LacOMe, methyl β-lactoside, reference compound] | –
